Source: patent publication US11673910B2, “Macrolides with modified desosamine sugars and uses thereof” (Zikani Therapeutics, Inc., priority 2017, dated 2023)
≈ marks a conversion by molar mass, not a printed value.

Key:
Format in all cases: cell-based
[1] = test system: P. aeruginosa strain MP-3; assay: Broth dilution MIC determination (CLSI) against P. aeruginosa strain MP-3; conditions: Pseudomonas aeruginosa, MP3
In short: (§1)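 Broth dilution per CLSI guidance gave the MIC for each macrolide. Three activity tiers: MIC not above 4 mg/L (+++); between 8 and below 32 mg/L (++); 32 mg/L or more (+).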

[2] = test system: A. baumannii strain MP-15; assay: Broth dilution MIC determination (CLSI) against A. baumannii strain MP-15; conditions: Acinetobacter baumannii, MP15
In short: as §1

S. aureus strain MP-12 = assay: Broth dilution MIC determination (CLSI) against S. aureus strain MP-12; conditions: for MIC: Staphylococcus aureus, MP12, strain MP-12
In short: as §1

E. coli strain MP-4 = assay: Broth dilution MIC determination (CLSI) against E. coli strain MP-4; conditions: Escherichia coli, MP4
In short: as §1

[3] = test system: K. pneumoniae strain MP-548; assay: Broth dilution MIC determination (CLSI) against K. pneumoniae strain MP-548; conditions: Klebsiella pneumoniae, MP548
In short: as §1

MIC [1] [µg/mL] | MIC [2] [µg/mL] | MIC (E. coli strain MP-4) [µg/mL] | MIC [3] [µg/mL] | MIC (S. aureus strain MP-12) [µg/mL] | Compound | MIC against S. aureus (MP-12) (S. aureus strain MP-12; strain MP-12)
≥ 32 | ≥ 32 | 8 to 32 (≈ 9.84 to 39.4 µM) | ≥ 32 | ≥ 32 | CC[C@H]1OC(=O)C(C)C(=O)[C@H](C)[C@@H](O[C@@H]2OC(CNCc3cccc(Oc4cnccn4)c3)CC(N(C)C)C2O)[C@](C)(OC)C[C@@H](C)CN[C@H](C)[C@H]2NC(=O)O[C@@]21C (some centres unmarked) [Compound 22] | 
≥ 32 | ≥ 32 | ≥ 32 | ≥ 32 | ≥ 32 | CC[C@H]1OC(=O)C(C)C(=O)[C@H](C)[C@@H](O[C@@H]2OC(CNCc3ccn(C)n3)CC(N(C)C)C2O)[C@](C)(OC)C[C@@H](C)CN[C@H](C)[C@H]2NC(=O)O[C@@]21C (some centres unmarked) [Compound 21] | 
≥ 32 | ≥ 32 | ≤ 4 | ≥ 32 | ≥ 32 | CC[C@H]1OC(=O)C(C)C(=O)[C@H](C)[C@@H](O[C@@H]2OC(CNCc3cccc(-c4cncnc4)c3)CC(N(C)C)C2O)[C@](C)(OC)C[C@@H](C)CN[C@H](C)[C@H]2NC(=O)O[C@@]21C (some centres unmarked) [Compound 20] | 
≥ 32 | ≥ 32 | ≥ 32 | ≥ 32 | ≥ 32 | CO[C@]1(C)C[C@@H](C)CN[C@H](C)[C@H]2NC(=O)O[C@]2(C)[C@@H](C)OC(=O)C(C)C(=O)[C@H](C)[C@H]1OC1OC(CN(C)CC2CC2)CC(N(C)C)C1O (some centres unmarked) [Compound 156, 3-Desdadinosyl-3-oxo-6-O-methyl-N9a-desmethyl-11,12-dideoxy-12,11-(oxycarbonylimino)-6′-methylcyclopropylmethyl-13-methyl Azithromycin] | 
≥ 32 | ≥ 32 | 8 to 32 (≈ 11.9 to 47.7 µM) | ≥ 32 | ≥ 32 | CC[C@H]1OC(=O)C(C)C(=O)[C@H](C)[C@@H](OC2OC(CNC(C)C)CC(N(C)C)C2O)[C@](C)(OC)C[C@@H](C)CN[C@H](C)[C@H]2NC(=O)O[C@@]21C (some centres unmarked) [Compound 109, 3-Descladinosyl-3-oxo-6-O-methyl-N9a-desmethyl-11,12-dideoxy-12,11-(oxycarbonylimino)-6′-isopropylamino Azithromycin] | 
≥ 32 | ≥ 32 | ≥ 32 | ≥ 32 | ≥ 32 | CC[C@H]1OC(=O)C(C)C(=O)[C@H](C)[C@@H](O[C@@H]2O[C@H](CN(C)C(=O)CN(C)C3CC3)CC(N(C)C)[C@H]2O)[C@](C)(OC)C[C@@H](C)CN[C@H](C)[C@H]2NC(=O)O[C@@]21C (some centres unmarked) [Compound 172, 3-Descladinosyl-3-oxo-6-O-methyl-N9a-desmethyl-11,12-dideoxy-12,11-(oxycarbonylimino)-6′-(N-methyl-N-(2-cyclopropylamino)acetylamino) Azithromycin] | 
≥ 32 | ≥ 32 | 8 to 32 (≈ 10.8 to 43.3 µM) | ≥ 32 | 8 to 32 (≈ 10.8 to 43.3 µM) | CC[C@H]1OC(=O)C(C)C(=O)[C@H](C)[C@@H](O[C@@H]2OC(CNc3ccc(Cl)cc3)CC(N(C)C)C2O)[C@](C)(OC)C[C@@H](C)CN[C@H](C)[C@H]2NC(=O)O[C@@]21C (some centres unmarked) [Compound 49] | 

Compound | MIC [1] [µg/mL] | MIC [2] [µg/mL] | MIC (E. coli strain MP-4) [µg/mL] | MIC [3] [µg/mL] | MIC (S. aureus strain MP-12) [µg/mL] | MIC against S. aureus (MP-12) (S. aureus strain MP-12; strain MP-12)
CC[C@H]1OC(=O)[C@]2(C)CCOC(C)(C[C@@H](C)CN[C@H](C)[C@H]3NC(=O)O[C@@]31C)[C@H](O[C@@H]1O[C@H](CNC34CC(C3)C4)C[C@H](N(C)C)[C@H]1O)[C@@H](C)C2=O [Compound 212] | ≥ 32 | 8 to 32 (≈ 11.3 to 45.3 µM) | ≤ 4 | 8 to 32 (≈ 11.3 to 45.3 µM) |  | +++ (values less than or equal to 4 mg/L)
CC[C@H]1OC(=O)[C@@]2(C)CCOC(C)(C[C@@H](C)CN(C)[C@H](C)[C@H]3NC(=O)O[C@@]31C)[C@H](O[C@@H]1O[C@H](CN(C)C3CC3)C[C@H](N(C)C)[C@H]1O)[C@@H](C)C2=O [Compound 209] | ≥ 32 | 8 to 32 (≈ 11.3 to 45.1 µM) | ≤ 4 | ≤ 4 | ≤ 4 | 
CC[C@H]1OC(=O)[C@]2(C)CCO[C@](C)(C[C@@H](C)CN[C@H](C)[C@H]3NC(=O)O[C@@]31C)[C@H](O[C@@H]1O[C@H](CN3CCCCC3)C[C@H](N(C)C)[C@H]1O)[C@@H](C)C2=O [Compound 198] | ≥ 32 | ≥ 32 | ≤ 4 | 8 to 32 (≈ 11.3 to 45.1 µM) | 8 to 32 (≈ 11.3 to 45.1 µM) | 
